Results from patent US20230295234A1, “ANTIMICROBIAL PEPTIDOMIMETICS” (SPEXIS AG, priority 2020, published 2023).
Peptide text beside a SMILES is read from it.

How the values were obtained:
[1] = test system: Escherichia coli ATCC 25922; settings: ATCC 25922
Outline: (§1)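 Standardized inocula (0.5 McFarland in saline, then diluted in MHII broth to approximately 5×10^5 CFU/mL) were exposed to two-fold dilution series of each peptide in the presence of polysorbate 80 (0.002% final).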

[2] = test system: Escherichia coli MCR-1 Af 45; settings: MCR-1 Af 45
Outline: as §1

[3] = test system: Klebsiella pneumoniae SSI3010; settings: SSI3010
Outline: as §1

[4] = test system: human red blood cells (hRBC); experiment: Hemolysis of human red blood cells; assay type: cell-based; settings: red cells of human, 1 h
Outline: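 Percent hemolysis is OD540 of peptide-treated supernatant relative to water-lysed cells. Each peptide was tested at 200 μg/mL against 20% (v/v) washed human erythrocytes. Incubation was 1 h at 37 °C, 300 rpm.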

Compound | Escherichia coli ATCC 25922 MIC [1] [µg/mL] | Escherichia coli MCR-1 Af 45 MIC [2] [µg/mL] | Klebsiella pneumoniae SSI3010 MIC [3] [µg/mL] | Hemolysis at 0.2 g/L [4] [%]
CC[C@H](C)[C@H](NC(=O)[C@@H](NC(=O)[C@@H]1CCCN1C(=O)[C@@H](NC(=O)[C@@H]1CCCN1C(=O)[C@H](CCCCN)NC(=O)CNCCCN)C(C)C)[C@@H](C)CC)C(=O)N[C@@H](Cc1ccc(O)cc1)C(=O)N[C@H]1CSSC[C@@H](C(=O)N[C@@H](CCN)C(=O)N[C@@H](CCCNC(=N)N)C(=O)N[C@@H](Cc2ccc(O)cc2)C(=O)O)NC(=O)[C@H](CCCCN)NC(=O)[C@@H](CCN)NC(=O)[C@H]([C@@H](C)O)NC(=O)[C@H](CCN)NC(=O)[C@H](CCCNC(=N)N)NC(=O)[C@H](CC(N)=O)NC1=O [Example 98] (HELM PEPTIDE1{[NCCCNCC(=O)[*:2]].K.P.V.P.I.I.Y.C.N.R.[Dab].T.[NCC[C@@H](N[*:1])C(=O)[*:2]].K.C.[Dab].R.Y}$PEPTIDE1,PEPTIDE1,9:R3-16:R3$$$V2.0) | ≤0.03125 | ≤0.03125 | 0.0625 | 0
CC[C@H](C)[C@H](NC(=O)[C@@H](NC(=O)[C@@H]1CCCN1C(=O)[C@@H](NC(=O)[C@@H]1CCCN1C(=O)CN(CCN)C(=O)[C@@H](N)CCCCN)C(C)C)[C@@H](C)CC)C(=O)N[C@@H](Cc1ccc(O)cc1)C(=O)N[C@H]1CSSC[C@@H](C(=O)N[C@@H](CCN)C(=O)N[C@@H](CCCNC(=N)N)C(=O)N[C@@H](Cc2ccc(O)cc2)C(=O)O)NC(=O)[C@H](CCCCN)NC(=O)[C@@H](CCN)NC(=O)[C@H]([C@@H](C)O)NC(=O)[C@H](CCN)NC(=O)[C@H](CCCNC(=N)N)NC(=O)[C@H](CC(N)=O)NC1=O [Example 99] (HELM PEPTIDE1{K.[NCCN(CC(=O)[*:2])[*:1]].P.V.P.I.I.Y.C.N.R.[Dab].T.[NCC[C@@H](N[*:1])C(=O)[*:2]].K.C.[Dab].R.Y}$PEPTIDE1,PEPTIDE1,9:R3-16:R3$$$V2.0; N-terminus assumed) | ≤0.03125 | ≤0.03125 | 0.0625 | 0
CC[C@H](C)[C@H](NC(=O)[C@@H](NC(=O)[C@@H]1CCCN1C(=O)[C@@H](NC(=O)[C@@H]1CCCN1C(=O)CN(CCCCN)C(=O)[C@@H](N)CCCCN)C(C)C)[C@@H](C)CC)C(=O)N[C@@H](Cc1ccc(O)cc1)C(=O)N[C@H]1CSSC[C@@H](C(=O)N[C@@H](CCN)C(=O)N[C@@H](CCCNC(=N)N)C(=O)N[C@@H](Cc2ccc(O)cc2)C(=O)O)NC(=O)[C@H](CCCCN)NC(=O)[C@@H](CCN)NC(=O)[C@H]([C@@H](C)O)NC(=O)[C@H](CCN)NC(=O)[C@H](CCCNC(=N)N)NC(=O)[C@H](CC(N)=O)NC1=O [Example 100] (HELM PEPTIDE1{K.[NCCCCN(CC(=O)[*:2])[*:1]].P.V.P.I.I.Y.C.N.R.[Dab].T.[NCC[C@@H](N[*:1])C(=O)[*:2]].K.C.[Dab].R.Y}$PEPTIDE1,PEPTIDE1,9:R3-16:R3$$$V2.0; N-terminus assumed) | 0.03125 | ≤0.03125 | 0.0625 | 0
CC[C@H](C)[C@H](NC(=O)[C@@H](NC(=O)[C@@H]1CCCN1C(=O)[C@@H](NC(=O)[C@@H]1CCCN1C(=O)CN(CCCN)C(=O)[C@@H](N)CCCCN)C(C)C)[C@@H](C)CC)C(=O)N[C@@H](Cc1ccc(O)cc1)C(=O)N[C@H]1CSSC[C@@H](C(=O)N[C@@H](CCN)C(=O)N[C@@H](CCCNC(=N)N)C(=O)N[C@@H](Cc2ccc(O)cc2)C(=O)O)NC(=O)[C@H](CCCCN)NC(=O)[C@@H](CCN)NC(=O)[C@H]([C@@H](C)O)NC(=O)[C@H](CCN)NC(=O)[C@H](CCCNC(=N)N)NC(=O)[C@H](CC(N)=O)NC1=O [Example 101] (HELM PEPTIDE1{K.[NCCCN(CC(=O)[*:2])[*:1]].P.V.P.I.I.Y.C.N.R.[Dab].T.[NCC[C@@H](N[*:1])C(=O)[*:2]].K.C.[Dab].R.Y}$PEPTIDE1,PEPTIDE1,9:R3-16:R3$$$V2.0) | 0.0625 | 0.03125 | 0.0625 | 0

More lines, main results first:

Escherichia coli ATCC 25922 MIC [1] [µg/mL] | Escherichia coli MCR-1 Af 45 MIC [2] [µg/mL] | Klebsiella pneumoniae SSI3010 MIC [3] [µg/mL] | Compound | Hemolysis at 0.2 g/L [4] [%]
0.0625 | 0.0625 | 0.0625 | CC[C@H](C)[C@H](NC(=O)CN(CCN)C(=O)[C@@H](NC(=O)[C@@H]1CCCN1C(=O)[C@H](CCCCN)NC(=O)[C@@H](N)CCCCN)C(C)C)C(=O)N[C@H](C(=O)N[C@@H](Cc1ccc(O)cc1)C(=O)N[C@H]1CSSC[C@@H](C(=O)N[C@@H](CCN)C(=O)N[C@@H](CCCNC(=N)N)C(=O)N[C@@H](Cc2ccc(O)cc2)C(=O)O)NC(=O)[C@H](CCCCN)NC(=O)[C@@H](CCN)NC(=O)[C@H]([C@@H](C)O)NC(=O)[C@H](CCN)NC(=O)[C@H](CCCNC(=N)N)NC(=O)[C@H](CC(N)=O)NC1=O)[C@@H](C)CC [Example 102, Lys-Lys-Pro-Val-Ndab-Ile-Ile-Tyr-Cys-Asn-Arg-Dab-Thr-^DDab-Lys-Cys-Dab-Arg-Tyr] (HELM PEPTIDE1{K.K.P.V.[NCCN(CC(=O)[*:2])[*:1]].I.I.Y.C.N.R.[Dab].T.[NCC[C@@H](N[*:1])C(=O)[*:2]].K.C.[Dab].R.Y}$PEPTIDE1,PEPTIDE1,9:R3-16:R3$$$V2.0) | 0
≤0.03125 | ≤0.03125 | 0.0625 | CC[C@H](C)[C@H](NC(=O)[C@@H](NC(=O)[C@@H]1CCCN1C(=O)[C@@H](NC(=O)[C@@H]1CCCN1C(=O)[C@H](CCCCN)NC(=O)[C@@H](N)CCCCN)C(C)C)[C@@H](C)CC)C(=O)N[C@@H](Cc1ccc(O)cc1)C(=O)N[C@H]1CSSC(C)(C)[C@@H](C(=O)N[C@@H](CCN)C(=O)N[C@@H](CCCNC(=N)N)C(=O)N[C@@H](Cc2ccc(O)cc2)C(=O)O)NC(=O)[C@H](CCCCN)NC(=O)[C@@H](CCN)NC(=O)[C@H]([C@@H](C)O)NC(=O)[C@H](CCN)NC(=O)[C@H](CCCNC(=N)N)NC(=O)[C@H](CC(N)=O)NC1=O [Example 103] (HELM PEPTIDE1{K.K.P.V.P.I.I.Y.C.N.R.[Dab].T.[NCC[C@@H](N[*:1])C(=O)[*:2]].K.[Pen].[Dab].R.Y}$PEPTIDE1,PEPTIDE1,9:R3-16:R3$$$V2.0) | 0
0.25 | 0.125 | 0.125 | CC[C@H](C)[C@H](NC(=O)[C@@H](NC(=O)[C@@H]1CCCN1C(=O)[C@@H](NC(=O)[C@@H]1CCCN1C(=O)[C@H](CCCCN)NC(=O)[C@@H](N)CCCCN)C(C)C)[C@@H](C)CC)C(=O)N[C@@H](Cc1ccc(O)cc1)C(=O)N[C@H]1CSSC[C@@H](C(=O)N[C@@H](CCN)C(=O)N[C@@H](CCCNC(=N)N)C(=O)N[C@@H](Cc2ccc(O)cc2)C(=O)O)NC(=O)[C@H](CCCCN)NC(=O)[C@@H](CCN)NC(=O)[C@H]([C@@H](C)O)NC(=O)[C@H](CCN)NC(=O)CN(CCCNC(=N)N)C(=O)[C@H](CC(N)=O)NC1=O [Example 104] (HELM PEPTIDE1{K.K.P.V.P.I.I.Y.C.N.[N=C(N)NCCCN(CC(=O)[*:2])[*:1]].[Dab].T.[NCC[C@@H](N[*:1])C(=O)[*:2]].K.C.[Dab].R.Y}$PEPTIDE1,PEPTIDE1,9:R3-16:R3$$$V2.0; N-terminus assumed) | 0
0.125 | 0.0625 | 0.125 | CC[C@H](C)[C@H](NC(=O)[C@@H](NC(=O)[C@@H]1CCCN1C(=O)[C@@H](NC(=O)[C@@H]1CCCN1C(=O)[C@H](CCCCN)NC(=O)[C@@H](N)CCCCN)C(C)C)[C@@H](C)CC)C(=O)N[C@@H](Cc1ccc(O)cc1)C(=O)N[C@H]1CSSC[C@@H](C(=O)N[C@@H](CCN)C(=O)N[C@@H](CCCNC(=N)N)C(=O)N[C@@H](Cc2ccc(O)cc2)C(=O)O)NC(=O)[C@H](CCCCN)NC(=O)[C@@H](CCN)NC(=O)[C@H]([C@@H](C)O)NC(=O)CN(CCCCN)C(=O)[C@H](CCCNC(=N)N)NC(=O)[C@H](CC(N)=O)NC1=O [Example 105] (HELM PEPTIDE1{K.K.P.V.P.I.I.Y.C.N.R.[NCCCCN(CC(=O)[*:2])[*:1]].T.[NCC[C@@H](N[*:1])C(=O)[*:2]].K.C.[Dab].R.Y}$PEPTIDE1,PEPTIDE1,9:R3-16:R3$$$V2.0) | 0
0.25 | 0.125 | 0.125 | CC[C@H](C)[C@H](NC(=O)[C@@H](NC(=O)[C@@H]1CCCN1C(=O)[C@@H](NC(=O)[C@@H]1CCCN1C(=O)[C@H](CCCCN)NC(=O)[C@@H](N)CCCCN)C(C)C)[C@@H](C)CC)C(=O)N[C@@H](Cc1ccc(O)cc1)C(=O)N[C@H]1CSSC[C@@H](C(=O)N[C@@H](CCN)C(=O)N[C@@H](CCCNC(=N)N)C(=O)N[C@@H](Cc2ccc(O)cc2)C(=O)O)NC(=O)[C@H](CCCCN)NC(=O)[C@@H](CCN)NC(=O)[C@H]([C@@H](C)O)NC(=O)CN(CCCN)C(=O)[C@H](CCCNC(=N)N)NC(=O)[C@H](CC(N)=O)NC1=O [Example 106] (HELM PEPTIDE1{K.K.P.V.P.I.I.Y.C.N.R.[NCCCN(CC(=O)[*:2])[*:1]].T.[NCC[C@@H](N[*:1])C(=O)[*:2]].K.C.[Dab].R.Y}$PEPTIDE1,PEPTIDE1,9:R3-16:R3$$$V2.0; N-terminus assumed) | 0
